According to patent US20240025907A1, “QUINAZOLINE PAN-KRas INHIBITORS” (Mirati Therapeutics, Inc., priority 2022, published 2024):

Experiments:
[1] = system: KRas-mediated Phosphorylation of ERK in H358 cells; assay: Cisbio HTRF pERK assay, H358 cells; type: cell-based; settings: Homo sapiens, NCI-H358, 3 h, H358 cells, 3 hrs compound; read-out: Inhibition (HTRF IC50 nM) of KRas-mediated Phosphorylation of ERK, H358
[2] = system: KRas-mediated Phosphorylation of ERK in H2009 cells; assay: Cisbio HTRF pERK assay, H2009 cells; type: cell-based; settings: Homo sapiens, NCI-H2009, H2009 cells; read-out: Inhibition (HTRF IC50 nM) of KRas-mediated Phosphorylation of ERK, H2009
[3] = system: KRas-mediated Phosphorylation of ERK in H460 cells; assay: Cisbio HTRF pERK assay, H460 cells; type: cell-based; settings: Homo sapiens, NCI-H460, 3 h, H460 cells, 3 hrs compound; read-out: Inhibition (HTRF IC50 nM) of KRas-mediated Phosphorylation of ERK, H460
[4] = system: KRas-mediated Phosphorylation of ERK in A549 cells; assay: Cisbio HTRF pERK assay, A549 cells; type: cell-based; settings: Homo sapiens, A549, 3 h, A549 cells, 3 hrs compound; read-out: Inhibition (HTRF IC50 nM) of KRas-mediated Phosphorylation of ERK, A549
[5] = system: KRas-mediated Phosphorylation of ERK in PSN1 cells; assay: Cisbio HTRF pERK assay, PSN1 cells; type: cell-based; settings: Homo sapiens, PSN1, 3 h, 3 hour compound, read-out: Inhibition (HTRF IC50 nM) of KRas-mediated Phosphorylation of ERK, PSN1
Procedure: Inhibition of KRas Phosphorylation of ERK (HTRF) by Exemplary Compounds of Formula (I) • Cisbio HTRF Advanced pERK Assay Catalog #64AERPEH • Cell: MKN1, PSN1 • Procedure: • Day 1: Seed 6,000 cells/well −25 μl/well in 384-well white solid bottom plate; RPM1_10% FBS.

[6] = system: KRas-mediated Phosphorylation of ERK in HCT116 cells; assay: Cisbio HTRF pERK assay, HCT116 cells; type: cell-based; settings: Homo sapiens, HCT-116, 3 h, HCT116 cells, 3 hrs compound; read-out: Inhibition (HTRF IC50 nM) of KRas-mediated Phosphorylation of ERK, HCT116
[7] = system: KRas-mediated Phosphorylation of ERK in H727 cells; assay: Cisbio HTRF pERK assay, H727 cells; type: cell-based; settings: Homo sapiens, NCI-H727, 3 h, 3 hrs compound, read-out: Inhibition (HTRF IC50 nM) of KRas-mediated Phosphorylation of ERK, H727
[8] = system: KRas-mediated Phosphorylation of ERK in AsPC-1 cells; assay: Cisbio HTRF pERK assay, AsPC-1 cells; type: cell-based; settings: Homo sapiens, ASPC1, 3 h, 3 hrs compound, read-out: Inhibition (HTRF IC50 nM) of KRas-mediated Phosphorylation of ERK, AsPC-1
[9] = target: T1, KRas^G12S (Homo sapiens, UniProt P01116, G12S); assay: KRas TR-FRET tracer displacement binding assay, G12S; settings: 60-minute incubation
T1 construct: Biotinylated KRas (corresponding to amino acids 1-169, produced at Accelegan Inc.); biotin (biotinylated); purchased Accelegan Inc
T1 sequence (P01116 1-169 isoform P01116-2 G12S): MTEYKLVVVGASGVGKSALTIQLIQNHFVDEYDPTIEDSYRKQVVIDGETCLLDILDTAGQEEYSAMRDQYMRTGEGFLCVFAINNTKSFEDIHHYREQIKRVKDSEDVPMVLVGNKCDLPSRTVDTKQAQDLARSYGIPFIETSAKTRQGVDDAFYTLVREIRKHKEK
Procedure: (§1) KRas^WT, KRas^G12A, KRas^G12C, KRas^G12D, KRas^G12R, KRas^G12S, KRas^G12V, KRas^G13D, or KRas^Q61H was used in the assay.
(§2) The ability of a compound to bind to KRas was measured using a TR-FRET displacement assay. Biotinylated KRas (corresponding to amino acids 1-169, produced at Accelegan Inc.) was incubated with custom made Cy5 labelled tracer, terbium streptavidin (Cisbio Inc.) and compound (1% DMSO final) in buffer (50 mM HEPES, pH 7.5, 5 mM MgCl2, 0.005% Tween-20 and 1 mM DTT). After a 60-minute incubation at room temperature, the reaction was measured using a BMG LABTECH CLARIO star Plus via TR-FRET.

[10] = target: T2, KRas^G12D (Homo sapiens, UniProt P01116, G12D); assay: KRas TR-FRET tracer displacement binding assay, G12D; settings: 60-minute incubation
T2 construct: Biotinylated KRas (corresponding to amino acids 1-169, produced at Accelegan Inc.); biotin (biotinylated); purchased Accelegan Inc
T2 sequence (P01116 1-169 isoform P01116-2 G12D): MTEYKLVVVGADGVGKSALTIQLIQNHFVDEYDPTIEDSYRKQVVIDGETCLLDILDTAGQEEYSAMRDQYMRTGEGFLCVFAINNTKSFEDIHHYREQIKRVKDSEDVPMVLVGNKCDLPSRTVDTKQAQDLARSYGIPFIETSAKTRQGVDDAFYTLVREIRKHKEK
Procedure: as §1, §2

[11] = target: T3, KRas^G12V (Homo sapiens, UniProt P01116, G12V); assay: KRas TR-FRET tracer displacement binding assay, G12V; settings: 60-minute incubation
T3 construct: Biotinylated KRas (corresponding to amino acids 1-169, produced at Accelegan Inc.); biotin (biotinylated); purchased Accelegan Inc
T3 sequence (P01116 1-169 isoform P01116-2 G12V): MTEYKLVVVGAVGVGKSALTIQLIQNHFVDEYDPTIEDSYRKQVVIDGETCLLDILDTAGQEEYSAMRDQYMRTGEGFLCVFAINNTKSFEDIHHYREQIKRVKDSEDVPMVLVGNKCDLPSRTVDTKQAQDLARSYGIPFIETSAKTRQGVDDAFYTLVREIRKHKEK
Procedure: as §1, §2

[12] = target: T4, KRas^WT (Homo sapiens, UniProt P01116); assay: KRas TR-FRET tracer displacement binding assay, WT; settings: 60-minute incubation
T4 construct: Biotinylated KRas (corresponding to amino acids 1-169, produced at Accelegan Inc.); biotin (biotinylated); purchased Accelegan Inc
T4 sequence (P01116 1-169 isoform P01116-2): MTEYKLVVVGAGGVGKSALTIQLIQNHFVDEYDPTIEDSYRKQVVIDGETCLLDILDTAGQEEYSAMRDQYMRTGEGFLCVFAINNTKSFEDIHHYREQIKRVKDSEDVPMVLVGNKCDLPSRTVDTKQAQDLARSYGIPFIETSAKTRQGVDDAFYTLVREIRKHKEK
Procedure: as §1, §2

[13] = target: T5, KRas^G12C (Homo sapiens, UniProt P01116, G12C); assay: KRas TR-FRET tracer displacement binding assay, G12C; settings: 60-minute incubation
T5 construct: Biotinylated KRas (corresponding to amino acids 1-169, produced at Accelegan Inc.); biotin (biotinylated); purchased Accelegan Inc
T5 sequence (P01116 1-169 isoform P01116-2 G12C): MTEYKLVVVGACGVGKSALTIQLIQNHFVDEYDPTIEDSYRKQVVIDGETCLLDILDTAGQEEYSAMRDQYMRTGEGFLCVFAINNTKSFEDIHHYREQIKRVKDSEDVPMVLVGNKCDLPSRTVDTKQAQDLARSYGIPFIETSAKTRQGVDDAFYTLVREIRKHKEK
Procedure: as §1, §2

SMILES	IC50 [1] [nM]	IC50 [2] [nM]	IC50 [3] [nM]	IC50 [4] [nM]	IC50 [5] [nM]	IC50 [6] [nM]	IC50 [7] [nM]	IC50 [8] [nM]	IC50 [9] [nM]	IC50 [10] [nM]	IC50 [11] [nM]	IC50 [12] [nM]	IC50 [13] [nM]
N#Cc1c(N)sc2c(F)ccc(-c3c(Cl)cc4c(NC5CS(=O)(=O)C5)nc(OC[C@@]56CCCN5C[C@H](F)C6)nc4c3F)c12 [Example 218, 2-amino-4-(6-chloro-4-((1,1-dioxidothietan-3-yl)amino)-8-fluoro-2-(((2R,7aS)-2-fluorotetrahydro-1H-pyrrolizin-7a(5H)-yl)methoxy)quinazolin-7-yl)-7-fluorobenzo[b]thiophene-3-carbonitrile]	57	80	365	720	5110	566	429	1650	–	–	–	–	–
N#Cc1c(N)sc2c(F)ccc(-c3c(Cl)cc4c(NCCS(N)(=O)=O)nc(OC[C@@]56CCCN5C[C@H](F)C6)nc4c3F)c12 [Example 201, 2-((7-(2-amino-3-cyano-7-fluorobenzo[b]thiophen-4-yl)-6-chloro-8-fluoro-2-(((2R,7aS)-2-fluorotetrahydro-1H-pyrrolizin-7a(5H)-yl)methoxy)quinazolin-4-yl)amino)ethane-1-sulfonamide]	1780	–	5340	> 10000	> 10000	> 10000	> 10000	4690	2	3	3	3	3
N#Cc1c(N)sc2c(F)ccc(-c3c(C4CC4)cc4c(N5C[C@H]6CC[C@@H](C5)N6)nc(OC[C@@]56CCCN5C[C@H](F)C6)nc4c3F)c12 [Example 208, 4-(4-((1R,5S)-3,8-diazabicyclo[3.2.1]octan-3-yl)-6-cyclopropyl-8-fluoro-2-(((2R,7aS)-2-fluorotetrahydro-1H-pyrrolizin-7a(5H)-yl)methoxy)quinazolin-7-yl)-2-amino-7-fluorobenzo[b]thiophene-3-carbonitrile]	167	–	260	418	2390	90	3280	4	4	< 2	10.4	4	7
N#Cc1c(N)sc2c(F)ccc(-c3c(Cl)cc4c(N5CCCOCC5)nc(OC[C@@]56CCCN5C[C@H](F)C6)nc4c3F)c12 [Example 211, 2-amino-4-(6-chloro-8-fluoro-2-(((2R,7aS)-2-fluorotetrahydro-1H-pyrrolizin-7a(5H)-yl)methoxy)-4-(1,4-oxazepan-4-yl)quinazolin-7-yl)-7-fluorobenzo[b]thiophene-3-carbonitrile]	3	–	13	15	1270	18	12	22	< 2	3	2	< 2	< 2
N#Cc1c(N)sc2c(F)ccc(-c3c(Cl)cc4c(N5CCCCC(F)C5)nc(OC[C@@]56CCCN5C[C@H](F)C6)nc4c3F)c12 (stereo partly drawn) [Example 204, 2-amino-4-(6-chloro-8-fluoro-4-(3-fluoroazepan-1-yl)-2-(((2R,7aS)-2-fluorotetrahydro-1H-pyrrolizin-7a(5H)-yl)methoxy)quinazolin-7-yl)-7-fluorobenzo[b]thiophene-3-carbonitrile]	6	–	23	34	1180	25	18	16	< 2	3	3	2	3
CN(c1nc(OC[C@@]23CCCN2C[C@H](F)C3)nc2c(F)c(-c3ccc(F)c4sc(N)c(C#N)c34)c(Cl)cc12)[C@H]1C[C@@H]1F [Example 202, 2-amino-4-(6-chloro-8-fluoro-4-(((1S,2S)-2-fluorocyclopropyl)(methyl)amino)-2-(((2R,7aS)-2-fluorotetrahydro-1H-pyrrolizin-7a(5H)-yl)methoxy)quinazolin-7-yl)-7-fluorobenzo[b]thiophene-3-carbonitrile]	63	24	145	200	3350	498	104	200	–	–	–	–	–
N#Cc1c(N)sc2c(F)ccc(-c3c(Cl)cc4c(N5CCCCCC5)nc(OC[C@@]56CCCN5C[C@H](F)C6)nc4c3F)c12 [Example 210, 2-amino-4-(4-(azepan-1-yl)-6-chloro-8-fluoro-2-(((2R,7aS)-2-fluorotetrahydro-1H-pyrrolizin-7a(5H)-yl)methoxy)quinazolin-7-yl)-7-fluorobenzo[b]thiophene-3-carbonitrile]	10	5	25	38	1190	54	22	21	–	–	–	–	–
CN(C)C(=O)c1cc2n(n1)CCCN(c1nc(OC[C@@]34CCCN3C[C@H](F)C4)nc3c(F)c(-c4ccc(F)c5sc(N)c(C#N)c45)c(C4CC4)cc13)C2 [Example 207, 5-(7-(2-amino-3-cyano-7-fluorobenzo[b]thiophen-4-yl)-6-cyclopropyl-8-fluoro-2-(((2R,7aS)-2-fluorotetrahydro-1H-pyrrolizin-7a(5H)-yl)methoxy)quinazolin-4-yl)-N,N-dimethyl-5,6,7,8-tetrahydro-4H-pyrazolo[1,5-a][1,4]diazepine-2-carboxamide]	3	–	34	22	811	42	11	3	< 2	2	< 2	< 2	< 2
C=Cc1cc2c(N3CCCn4nc(C(=O)N(C)C)cc4C3)nc(OC[C@@]34CCCN3C[C@H](F)C4)nc2c(F)c1-c1ccc(F)c2sc(N)c(C#N)c12 [Example 176, 5-(7-(2-amino-3-cyano-7-fluorobenzo[b]thiophen-4-yl)-8-fluoro-2-(((2R,7aS)-2-fluorotetrahydro-1H-pyrrolizin-7a(5H)-yl)methoxy)-6-vinylquinazolin-4-yl)-N,N-dimethyl-5,6,7,8-tetrahydro-4H-pyrazolo[1,5-a][1,4]diazepine-2-carboxamide]	8	–	101	72	–	135	23	10	< 2	< 2	< 2	< 2	< 2
C[C@@]1(O)CCCN(c2nc(OC[C@@]34CCCN3C[C@H](F)C4)nc3c(F)c(-c4ccc(F)c5sc(N)c(C#N)c45)c(F)cc23)C1 [Example 198, 2-amino-4-(6,8-difluoro-2-(((2R,7aS)-2-fluorotetrahydro-1H-pyrrolizin-7a(5H)-yl)methoxy)-4-((R)-3-hydroxy-3-methylpiperidin-1-yl)quinazolin-7-yl)-7-fluorobenzo[b]thiophene-3-carbonitrile]	125	–	170	326	–	275	717	253	11	9	13	7	12
